Experiments:
Assay in all cases: relative viability (nuclei count vs DMSO), 5 days (fraction); higher = more cells survive
Bicalutamide + AZD7762 = compound: CC(O)(CS(=O)(=O)c1ccc(F)cc1)C(=O)Nc1ccc(C#N)c(C(F)(F)F)c1 [Bicalutamide] + NC(=O)Nc1cc(-c2cccc(F)c2)sc1C(=O)N[C@H]1CCCNC1 [AZD7762] (partner 0.2 µM)
Summary of the method: (§1)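 A single step with final 0.05% Triton X-100, 1% formaldehyde and 1 ug/ml Hoechst fixed the cells and stained nuclei 5 days after treatment. Lung cancer cell lines in 1536-well plates had been treated by pin tool the day after seeding with one drug alone or a fixed anchor-drug dose plus five library-drug doses (not always all listed) in √10 steps, and nuclei were counted on 4× images. Relative viability is the ratio of nuclei in treated wells to nuclei in vehicle wells, taken as the median of duplicate plates.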

[1] = compound: CC(O)(CS(=O)(=O)c1ccc(F)cc1)C(=O)Nc1ccc(C#N)c(C(F)(F)F)c1 [Bicalutamide] + CS(=O)(=O)N1CCN(Cc2cc3nc(-c4cccc5[nH]ncc45)nc(N4CCOCC4)c3s2)CC1 [Pictilisib] (partner 1 µM)
Summary of the method: as §1

[2] = compound: C(C(=O)C(=O)O)Br [Bromopyruvate] + CCNC(=O)c1noc(-c2cc(C(C)C)c(O)cc2O)c1-c1ccc(CN2CCOCC2)cc1 [Luminespib] (partner 0.01 µM)
Summary of the method: as §1

Bromopyruvate + Olaparib = compound: C(C(=O)C(=O)O)Br [Bromopyruvate] + O=C(c1cc(Cc2n[nH]c(=O)c3ccccc23)ccc1F)N1CCN(C(=O)C2CC2)CC1 [Olaparib] (partner 8 µM)
Summary of the method: as §1

Cell Line	relative viability (Bicalutamide + AZD7762; first compound 0.08 µM)	relative viability (Bicalutamide + AZD7762; first compound 0.253 µM)	relative viability (Bicalutamide + AZD7762; first compound 0.8 µM)	relative viability (Bicalutamide + AZD7762; first compound 2.53 µM)	relative viability ([1]; first compound 0.08 µM)	relative viability ([1]; first compound 0.253 µM)	relative viability ([1]; first compound 0.8 µM)	relative viability ([1]; first compound 2.53 µM)	relative viability ([2]; first compound 1 µM)	relative viability ([2]; first compound 3.162 µM)	relative viability ([2]; first compound 10 µM)	relative viability ([2]; first compound 31.62 µM)	relative viability ([2]; first compound 100 µM)	relative viability (Bromopyruvate + Olaparib; first compound 1 µM)	relative viability (Bromopyruvate + Olaparib; first compound 3.162 µM)	relative viability (Bromopyruvate + Olaparib; first compound 10 µM)	relative viability (Bromopyruvate + Olaparib; first compound 31.62 µM)	relative viability (Bromopyruvate + Olaparib; first compound 100 µM)
NCI-H3122	0.98	1	1.05	1.01	0.665	0.645	0.676	0.652	0.0847	0.0952	0.105	0.0703	0.0612	0.647	0.663	0.631	0.586	0.604
LCLC-97TM1	0.388	0.186	0.225	0.232	0.256	0.206	0.228	0.199	0.727	0.792	0.864	0.708	0.709	0.467	0.458	0.481	0.352	0.212
NCI-H647	0.512	0.397	0.549	0.321	0.358	0.348	0.643	0.339	0.203	0.306	0.108	0.109	0.4	0.567	0.541	0.494	0.585	0.532
NCI-H838	0.965	0.958	1.02	0.909	0.589	0.415	0.524	0.324	0.282	0.359	0.456	0.324	0.282	0.758	0.757	0.86	0.781	0.686
H3255	0.949	0.791	1.11	0.823	0.521	0.376	0.48	0.462	0.859	1	1.05	0.896	1.04	0.579	0.591	0.558	0.563	0.571
NCI-H1437	1.17	1.13	1.15	1.19	0.475	0.381	0.419	0.451	1.16	1.19	1.16	1.12	1.1	0.647	0.664	0.656	0.62	0.627
LU99A	0.431	0.286	0.544	0.252	0.295	0.321	0.364	0.209	0.301	0.313	0.273	0.248	0.213	0.267	0.237	0.241	0.26	0.134
HCC-827	0.234	0.124	0.217	0.227	1.01	0.85	1.1	1.04	0.684	0.607	1.01	0.886	0.619	0.757	0.706	0.732	0.616	0.588
LK-2	0.432	0.254	0.442	0.495	0.591	0.442	0.754	0.667	0.166	0.182	0.158	0.161	0.199	0.827	0.816	0.815	0.591	0.717
BEN	0.742	0.563	0.874	0.675	0.589	0.472	0.713	0.632	0.587	0.342	0.66	0.303	0.295	0.96	0.994	1.46	1.03	0.99

Source: the supplement of paper PMC10307832
